Consider six molecules from US20210371817A1, “COMPOSITIONS AND METHODS FOR PRECISE PATTERNING OF POSTERIOR NEUROECTODERM FROM HUMAN PLURIPOTENT STEM CELLS” (WISCONSIN ALUMNI RESEARCH FOUNDATION, priority 2013, published 2021).

Common to all, as to format: cell-based, human
For one test, the system named is H9 hESCs. Nature of the test: HOX, OTX2 and T gene expression by RT-PCR/qPCR during hESC differentiation with morphogens. Particulars: HX531 1 μM; RT-PCR. The protocol: hPSC differentiation. hPSCs were washed once with phosphate-buffered saline (PBS; Invitrogen), dissociated with ACCUTASE® (Invitrogen) for 3 min, and collected by centrifugation. hPSCs were then seeded onto VTN-NC-coated plates in E8 medium containing 10 μM ROCK inhibitor (Y27632; R&D Systems). Seeding density was 2×10^5 cells/cm^2. The following day, the cells were switched to E6 medium (same composition as E8 medium minus FGF2 and TGFβ 1). Morphogen treatments were then carried out according to the figures in the text. Cells were supplemented with FGF8b (100-200 ng/ml; Peprotech), CHIR99021 (3-6 μM; Tocris), and/or RA (3 μM; Sigma).
Reverse transcriptase polymerase chain reaction (RT-PCR). Total RNA was extracted from cells using TRIZOL® reagent (Invitrogen) according to the manufacturer's instructions. RNA was then subjected to reverse-transcription using a Thermoscript™ RT-PCR kit (Invitrogen) in a 20 μL mixture according to the manufacturer's instructions. The resulting cDNA was then amplified in a 25 μL mixture containing 10×PCR buffer, 0.2 mM dNTP, 1.5 mM MgCl2, 0.5 μM of each primer, and 1 U Taq DNA polymerase (Invitrogen). Amplified products were resolved on 2% agarose gels containing SYBR Safe (Invitrogen) and visualized with a VersaDoc (BioRad). Primer sequences can be found in Table 3. All amplifications were carried out for 35 cycles. HOXC5 and HOXC6 were amplified at 58° C., all others with an annealing temperature of 55° C.
Propagation and differentiation of neuromesodermal progenitors. H9 hESCs (passage 25-45), H9 ishcat2 hESCs (passage 33-43), and IMR90-4 iPSCs (passage 31-40) were maintained in E8 medium on MATRIGEL© (BD Biosciences) as previously described. To initiate differentiation, hPSCs were passaged with ACCUTASE© (Life Technologies) onto vitronectin (VTN-NC)-coated plates at a density of 1×10^5 cells/cm^2 as previously described. The following day, cells were changed to E6 medium. 24 h later, cells were changed to E6 medium containing 200 ng/ml FGF8b (Peprotech). 24 h later, cells were washed once with 2 ml PBS, treated with ACCUTASE® for 2 min, and removed from the surface by gentle pipetting. After collection by centrifugation, cells were gently resuspended in E6 medium containing 200 ng/ml FGF8b and CHIR99021 (CHIR, concentration varied depending on cell line; Tocris) and re-seeded on VTN-NC-coated plates at a density of 1.5×10^5 cells/cm^2. Medium was not changed until 48 h after passaging. This passaging process was repeated on day 3 of CHIR 99021 treatment (re-seed density of 1.2×10^5 cells/cm^2) if extended neuromesodermal propagation was required, and 50 ng/ml GDF11 (Peprotech) was added on day 4 of CHIR 99021 treatment to initiate lumbar patterning. Cells were changed to E6 medium containing 1 μM retinoic acid (RA; Sigma) to facilitate neural transition.
qPCR. Total RNA was extracted from cultured cells using TRIZOL® (Life Technologies) according to the manufacturer's instructions. After isolation, 2-5 μg of total RNA was immediately subjected to reverse transcription using the Thermoscript™ RT-PCR kit (Life Technologies) in a 20 μL reaction according to the manufacturer's instructions. […] For all experiments, ΔΔCt values for each gene were calculated relative to ribosomal protein S18 (RPS18) RNA levels and converted to fold difference assuming 100% primer efficiency, then normalized to maximum expression levels as indicated in each figure legend. […]
A general note: Quantitative PCR measures a nucleic acid by following its amplification.

Test [1] has as its system neuromesodermal progenitors. The test is described as follows: Neuroectoderm or mesoderm fate transition of neuromesodermal progenitors by flow cytometry. The protocol:
(§1) Assessment of neuroectoderm or mesoderm fate transition by flow cytometry. Grey histogram, IgG control; red histogram, antigen of interest. Data are presented as mean±standard deviation calculated from two biological replicates. (FIG. 8B) For experiments in panels FIGS. 8C-8F, neuromesodermal propagation was halted by removing FGF8b/CHIR 99021/GDF11 and adding RA. Assays were conducted after 4 days of RA treatment. (FIG. 8C) HOX profiles generated after RA treatment. Each gene is normalized to its maximum expression. Error bars are standard deviation calculated from duplicate reactions. (FIG. 8D) HoxB4 and HoxD10 expression in neuroepithelial cultures after RA treatment. Scale bars, 100 m. (FIG. 8E) Purity of Sox2, Pax6, HoxB4, and HoxD10 after 4 days of RA treatment. Sox2, Pax6, and HoxB4 were quantified using flow cytometry and HoxD10 was quantified by manual counting of dissociated cells ([…]). Error bars are standard deviation calculated from at least two biological replicates. […] (FIG. 8F) Motor neuron differentiation at cervical, thoracic, and lumbar spinal cord depths, where the motor neuron precursors show region-specific patterns of FoxP1, Isl1, and Hb9 co-expression. (FIG. 8G) Neuronal maturation from cervical, thoracic, and lumbar patterned NSCs, as assessed by immunocytochemistry (top panel; DAPI (blue) is overlaid in all images; Scale bars, 20 m) and RT-PCR (50 cycles; bottom panel).
(§2) Flow cytometry. Flow cytometry was conducted as described in the Examples above. Primary antibodies against Sox2 (mouse; 1:1000; Millipore), brachyury (goat; 1:200; R&D Systems), Pax6 (mouse; 1:200; DSHB), and HoxB4 (rat; 1:50; DSHB) were utilized. Samples were run on a FACSCaliber (BD Biosciences) and data were analyzed using Cyflogic software. Positive events were quantified by gating above the top 1% of species-matched IgG controls.
We next evaluated the transition of neuromesodermal progenitors to definitive neural progenitors. RA secreted from somites in response to declining FGF signaling elicits dorsal/ventral patterning and expression of the neuroectoderm marker Pax6 in vivo^16, 26, which led us to suspect RA serves as both the neuroectoderm fate switch and HOX ‘stop signal’. We first investigated the ability of RA to initiate neuroectoderm specification from neuromesodermal progenitors. […] At any point in neuromesodermal differentiation, the addition of RA generated highly pure (>83%) Pax6^+ neuroectoderm (FIGS. 8B-8E and FIGS. 9A-9C).
In general terms: In flow cytometry, cells or beads pass a laser one at a time.

In a further test the test system is NSC cultures. The test is described as follows: Hox protein expression in NSC cultures after RA treatment (immunocytochemistry, flow cytometry). As for the experimental part:
as §1
FIGS. 9A-9C (FIG. 9A) provides additional data showing that RA induces a neuroectodermal fate and halts colinear HOX activation, using the neural differentiation scheme shown in FIG. 8B and representative hindbrain cultures assessed by qPCR. (FIG. 9B) Representative hindbrain cultures assessed by immunocytochemistry. (FIG. 9C) Representative hindbrain cultures assessed by flow cytometry. All data are presented as mean±S.D. and qPCR data are normalized to the time point of maximum expression for each gene. For the hindbrain cultures, HoxB1 and HoxB4 were quantified by immunocytochemistry relative to DAPI+ nuclei, while Sox2 and Pax6 were quantified by flow cytometry. Scale bars, 100 m.
as §2
Immunocytochemistry. Immunocytochemistry was conducted as previously described. […]

The subject of a further test is H9 ishcat2 line. Nature of the test: qPCR gene expression in H9 ishcat2 line (doxycycline-inducible β-catenin shRNA). The protocol:
Cell lines were passaged for differentiation on day −1 for all experiments (see Example 4 for details). (FIG. 4A) Timeline of H9 hESC differentiation corresponding to panels (FIG. 4B) and (FIG. 4C). RA, 1 μM; CHIR 99021, 3 μM; FGF8b, 100 ng/ml. (FIG. 4B) Gene expression analysis by RT-PCR. Control sample is E6 medium alone. (FIG. 4C) qPCR analysis at day 5 of differentiation normalized to the morphogen treatment that yielded maximum expression. Statistical significance was calculated using the Student's unpaired t-test relative to the sample with maximum expression (*, p<0.005; **, p<0.001). (FIG. 4D) qPCR analysis of gene expression at day 2 using the H9 ishcat2 line in the presence or absence of doxycycline (2 μg/ml) added 3 days prior to morphogen treatment. Data are normalized to doxycycline-free samples for each respective morphogen and statistical significance was calculated using the Student's unpaired t-test (*, p<0.01). (FIG. 4E) qPCR analysis of gene expression at day 5 using the H9 ishcat2 line in the presence or absence of doxycycline. Statistical significance was calculated using the Student's unpaired t-test (*, p<0.005). […] [HX531]=1 μM. Timeline shown on left panel.
qPCR. Total RNA was extracted from cultured cells using TRIZOL® (Life Technologies) according to the manufacturer's instructions. After isolation, 2-5 μg of total RNA was immediately subjected to reverse transcription using the Thermoscript™ RT-PCR kit (Life Technologies) in a 20 μL reaction according to the manufacturer's instructions. Resultant cDNA was diluted to 200 μL and utilized for qPCR (25 μL reactions, 1 μL cDNA per reaction) on a BioRad CFX96 detection unit using TAQMAN® Gene Expression Master Mix (Life Technologies) and TAQMAN® primers (Life Technologies). For all experiments, ΔΔCt values for each gene were calculated relative to ribosomal protein S18 (RPS18) RNA levels and converted to fold difference assuming 100% primer efficiency, then normalized to maximum expression levels as indicated in each figure legend.
To confirm the effects of CHIR 99021 were due to activation of β-catenin, we utilized the H9 ishcat2 line which harbors a doxycycline-inducible β-catenin shRNA cassette^23. […] We extended doxycycline with FGF8b/CHIR 99021 for 4 days and observed a reduction in HOXC6 by 9-fold, HOXC8 by 7-fold, and HOXC9 by 8-fold, which implicates β-catenin in HOX progression to caudal paralogs (FIG. 4E).

The test system of test [2] is neurally differentiating hPSC cultures. Nature of the test: Alternative FGF isoforms in HOX patterning protocol (flow cytometry, RT-PCR). Particulars: for Sox2 and T (Brachyury) expression: FGF with CHIR, flow cytometry; for Hox1-5 paralog activation: two days of FGF/CHIR treatment, RT-PCR. The protocol: (FIG. 6A) Timeline of differentiation. […] (FIG. 6H) Agarose gel analysis for HOXgene expression after two days of FGF/CHR treatment in the protocol outlined in (FIG. 6A).
Specifically, FGF8a, 8b, and 8f, FGF17, FGF18, and FGF2 were used to execute our HOX patterning protocol on concurrent neurally differentiating hPSC cultures. The ability of alternative FGFs to recapitulate the effects of FGF8b was assessed by their ability to maintain a Sox2^+/T^+ neuromesodermal state while also inducing a similar rate of sequential HOXgene expression. Post FGF/CHIR addition, flow cytometry assays for Sox2 and T were performed, and the rate of sequential HOXgene expression was assessed by RT-PCR for a select panel of HOXgenes on collected mRNA samples.

[3] abbreviates: neuromesodermal progenitors exposed to E6 medium with the substance.
[4] abbreviates: doxycycline prior to CHIR 99021 treatment, day 2.
[5] abbreviates: doxycycline with FGF8b/CHIR 99021 for 4 days.

Bounds are passed on as bounds.

In the case of `CN1c2ccc([N+](=O)[O-])cc2N=C(c2ccc(C(=O)O)cc2)c2cc3c(cc21)C(C)(C)CCC3(C)C` [HX531], the “Effect on ability of FGF8b/CHIR 99021 to activate cervical and thoracic HOX paralogs” value in the test on H9 hESCs is listed as “did not prevent”.
In the case of `CC1=C(/C=C/C(C)=C/C=C/C(C)=C/C(=O)O)C(C)(C)CCC1` [RA, retinoic acid], the “Purity of Pax6+ neuroectoderm” value in test [1] (RA added at any point in neuromesodermal differentiation) was > 83%. Also, in test [1] (setting [3]), the “Brachyury+ cells” value came out at 43±4%, the “Pax6+ cells” value is reported as 97±3% and the “Sox2+ cells” value was found to be 98±4%. Further, the “HoxB4+ cells” value with NSC cultures (RA added 24 h later (within 24 h of HOXC9 induction)) turned out to be 12±4%. In addition, the “HoxB4+ cells” value in the test with NSC cultures (RA added between 24-48 h of neuromesodermal propagation) worked out at 84±10%.
As to `C[C@H]1c2cccc(O)c2C(=O)C2=C(O)[C@]3(O)C(=O)C(C(N)=O)=C(O)[C@@H](N(C)C)[C@@H]3[C@@H](O)[C@@H]21` [doxycycline], in the test with H9 ishcat2 line (RA-treated cells, day 2), the CTNNB1 reduction is on record as 2 fold. In addition, the “CTNNB1 (β-catenin) expression reduction” value with H9 ishcat2 line (doxycycline 2 μg/ml prior to CHIR 99021 treatment, day 2) is reported as 2.5 fold. In the test with H9 ishcat2 line (setting [4]), this molecule had an HOXA1 expression decrease of 15 fold and an HOXB1 expression decrease of 47 fold. The molecule also came in with a T reduction in the test with H9 ishcat2 line (doxycycline with FGF8b/CHIR 99021, day 5) of 30 fold. In the test on H9 ishcat2 line (setting [5]), this molecule returned an HOXC6 reduction of 9 fold, an HOXC8 reduction of 7 fold and an HOXC9 reduction of 8 fold.
Regarding “FGF2: fibroblast growth factor isoform used instead of FGF8b”, in test [2], the “Sox2 and T (Brachyury) expression” value was “nearly uniform expression of Sox2 and T (Brachyury)”; the Hox1-5 paralog activation entry is reported as “activated Hox1-5 paralogs”.

B1: FGF17: fibroblast growth factor isoform used instead of FGF8b (protein, UniProt O60258 23-216, looked up)
Fibroblast growth factor 17: TQGENHPSPNFNQYVRDQGAMTDQLSRRQIREYQLYSRTSGKHVQVTGRRISATAEDGNKFAKLIVETDTFGSRVRIKGAESEKYICMNKRGKLIGKPSGKSKDCVFTEIVLENNYTAFQNARHEGWFMAFTRQGRPRQASRSRQNQREAHFIKRLYQGQLPFPNHAEKQKQFEFVGSAPTRRTKRTRRPQPLT
B1: in test [2], the “Sox2 and T (Brachyury) expression” value was “nearly uniform expression of Sox2 and T (Brachyury)”; the Hox1-5 paralog activation entry is given as “activated Hox1-5 paralogs”.

B2: FGF18: fibroblast growth factor isoform used instead of FGF8b (protein, UniProt O76093 28-207, looked up)
Fibroblast growth factor 18: EENVDFRIHVENQTRARDDVSRKQLRLYQLYSRTSGKHIQVLGRRISARGEDGDKYAQLLVETDTFGSQVRIKGKETEFYLCMNRKGKLVGKPDGTSKECVFIEKVLENNYTALMSAKYSGWYVGFTKKGRPRKGPKTRENQQDVHFMKRYPKGQPELQKPFKYTTVTKRSRRIRPTHPA
On to B2, for which, in test [2], the “Sox2 and T (Brachyury) expression” value is “nearly uniform expression of Sox2 and T (Brachyury)”; the Hox1-5 paralog activation entry is on record as “activated Hox1-5 paralogs”.
